Assay results: patent US5051417A, “Indolythiadiazines for treating heart failure” (Les Laboratoires Beecham S.A., priority 1988, dated 1991)
Counter-ions that a name gives are not always drawn.

Test system: canine cardiac myofibrillar Ca++-dependent Mg++-ATPase
Test: Measurement of myofibrillar Ca++-dependent Mg++-ATPase activity on canine cardiac myofibrils
Type: biochemical
Details: pH 7.0, 21° C.; for max (percent change of maximal ATPase activity): pCa=5.47
Protocol: 1. Measurement of myofibrillar Ca++-dependent Mq++-ATPase activity The effect on myofibrillar Ca++sensitivity and on maximal activity of myofibrillar Ca++-dependent Mg++-ATPase was determined on canine cardiac myofibrils. (a) Contractile protein preparation Cardiac myofibrils free of membrane contaminants were prepared from left ventricular tissue of dog hearts using a modification of the method described by SOLARO et al, Biochem. Biophys. Acta, 245, 259-262, (1971). Before centrifugation, the heart homogenate was filtered through gauze. After Triton X-100 treatments, the myofibrillar fraction was washed once by resuspension and centrifugation in 10 volumes of 1 mM EGTA, […], 30 mM imidazole, 2 mM MgCl2, pH 7.0. The pellet was then washed three times in 10 volumes of the same buffer without EGTA. Before the last centrifugation, the suspension of myofibrils was filtered through a stainless steel sieve with 0.25 mm meshes. Myofibrils were kept in pellet overnight. Before use, the pellet was suspended in a small amount of buffer, the protein concentration was determined by the method of BRADFORD M., Anal. Biochem., 1976, 72, 248 and adjusted in order to have a concentration between 6 and 7 mg/ml. (b) Myofibrillar ATPase activity Ca++-dependent myfibrillar ATPase activity was determined at 21° C., pH 7.0, by measuring the rate of release of inorganic phosphate. All assays were performed within 24hrs. of final purification, using the method described by SOLARO and […]., 51. 290-4,(1982). Reaction mixtures (4 ml) containing 0.6-0.7 mg/ml myofibrillar protein, 80mM KCl, 20 mM imidazole, 3 mM MgCl2, 1 mM EGTA, the desired amount of CaCl2, and the indicated concentration of drug or appropriate vehicle were preincubated for 6 min. prior to assay. The amount of CaCl2 was varied between 0 and 0.9 mM and the pCa (-log free Ca++) computed using 2.514×10^6 M^-1 as the apparent affinity of Ca++for EGTA at pH 7.0. Reactions were initiated by the addition of Na2 ATP to final concentration of 2 mM. After an incubation period of 12 min., reactions were quenched by the addition of an equal volume of ice-cold 10% trichloroacetic acid. The protein was pelleted by centrifugation (2000 g, 15 min.) and Pi was assayed in the supernatant fraction using a modification of the method described by LANZETTA et al, Anal. Biochem., 100, 95-97, (1979). The following solutions were prepared: (1) 3.7% ammonium heptamolybdate in 0.12 N H2 SO4 (2) 0.074% malachite green oxalate in 1% polyvinylic alcohol. The colour reagent was prepared by mixing an equal volume of solution (1) and (2) 15 min. before the assay. For the assay, 1,700 μl of 1% H2 SO4 and 1 ml of colour reagent were added to 100 μl of sample. Colour development occurred at room temperature for 30 min. and was quenched by the addition of 200 μl of 1M tri-potassium citrate. The absorbance was measured at 620 millimicrons. The effect of each compound, tested at the indicated concentration, on the relation between pCa and percent activation was determined taking 100% for the maximum ATPase activity obrained with vehicle alone. The effect on Ca++sensitivity was quantified by measuring the shift of the pCa giving 50% of the maximal control ATPase activity. The effect on maximal ATPase activity was expressed as the percent change of ATPase activity for pCa=5.47. Mean effects on myofibrillar ATPase activity were obtained from 1 to 5 preparations, (compounds tested at 2×10^-4 M).

CC1SC(=O)N(C)N=C1c1ccc2c(c1)C(=NNc1ccccc1)C(=O)N2 (stereo not shown) [Example 41]
max (percent change of maximal ATPase activity) (30 μM): 7 ± 2%
pCa (shift of the pCa giving 50% of the maximal control ATPase activity; Ca++ sensitivity) (30 μM): +0.11 ± 0.04

CC#N.CC1SC(=O)NN=C1c1ccc2c(c1)C(=NNc1ccc(S(C)(=O)=O)cc1)C(=O)N2 (stereo not shown) [Example 33]
max (percent change of maximal ATPase activity) (30 μM): 3 ± 1%
pCa (shift of the pCa giving 50% of the maximal control ATPase activity; Ca++ sensitivity) (30 μM): +0.37 ± 0.05

Cc1ccc(NN=C2C(=O)Nc3ccc(C4=NNC(=O)SC4C)cc32)cc1 (stereo not shown) [Example 21, 5-(3,6-Dihydro-6-methyl-2-oxo-2H-1,3,4-thiadiazin-5-yl) -1H-indole-2,3-dione 3-[(4-methyl)phenylhydrazone]]
max (percent change of maximal ATPase activity) (10 μM): 41 ± 2%
pCa (shift of the pCa giving 50% of the maximal control ATPase activity; Ca++ sensitivity) (10 μM): 1.07 ± 0.02
max (percent change of maximal ATPase activity) (30 μM): -42 ± 7%
pCa (shift of the pCa giving 50% of the maximal control ATPase activity; Ca++ sensitivity) (30 μM): +1.30 ± 0.00

CC1SC(=O)NN=C1c1ccc2c(c1)C(=NNCc1ccccc1)C(=O)N2 (stereo not shown) [Example 22, 5-(3,6-Dihydro-6-methyl-2-oxo-2H-1,3,4-thiadiazin-5-yl) -1H-indole-2,3-dione 3-[(phenylmethyl)hydrazone]]
max (percent change of maximal ATPase activity) (30 μM): 21 ± 4%
pCa (shift of the pCa giving 50% of the maximal control ATPase activity; Ca++ sensitivity) (30 μM): +0.64 ± 0.1

COC(=O)NN=C1C(=O)Nc2ccc(C3=NNC(=O)SC3C)cc21 (stereo not shown) [Example 15, Methyl 2-[2,3-dihydro-5-(3,6-dihydro-6-methyl-2-oxo-2H -1,3,4-thiadiazin-5-yl)-2-oxo-1H-indol-3-ylidene]hydrazine carboxylate]
max (percent change of maximal ATPase activity) (30 μM): 2 ± 4%
pCa (shift of the pCa giving 50% of the maximal control ATPase activity; Ca++ sensitivity) (30 μM): +0.08 ± 0.04

CC1SC(=O)NN=C1c1ccc2c(c1)C(=Cc1cccnc1)C(=O)N2 (stereo not shown) [Example 19, 1,3-Dihydro-5-(3,6-dihydro-6-methyl-2-oxo-2H-1,3,4-thiadiazin-5-yl)-3-(3-pyridylmethylene)-2H-indol-2-one]
max (percent change of maximal ATPase activity) (30 μM): -14 ± 7%
pCa (shift of the pCa giving 50% of the maximal control ATPase activity; Ca++ sensitivity) (30 μM): +0.23 ± 0.06

CC1SC(=O)NN=C1c1ccc2c(c1)C(=NNc1ccc(Cl)cc1)C(=O)N2 (stereo not shown) [Example 29, 5-(3,6-Dihydro-6-methyl-2-oxo-2H-1,3,4-thiadiazin-5-yl) -1H-indole-2,3-dione 3-[(4-chloro)phenylhydrazone]]
max (percent change of maximal ATPase activity) (30 μM): 25 ± 4%
pCa (shift of the pCa giving 50% of the maximal control ATPase activity; Ca++ sensitivity) (30 μM): +0.78 ± 0.1

CC1SC(=O)NN=C1c1ccc2c(c1)C(=NNc1ccccn1)C(=O)N2.Cl (stereo not shown) [Example 35, 5-(3,6-Dihydro-6-methyl-2-oxo-2H-1,3,4-thiadiazin-5-yl)-1H-indole-2,3-dione 3-(2-pyridylhydrazone) monohydrochloride]
max (percent change of maximal ATPase activity) (30 μM): 0 ± 1%
pCa (shift of the pCa giving 50% of the maximal control ATPase activity; Ca++ sensitivity) (30 μM): +0.05 ± 0.06

CCOC(=O)CON=C1C(=O)Nc2ccc(C3=NNC(=O)SC3C)cc21 (stereo not shown) [Example 23, Ethyl[[[2,3-dihydro-5-(3,6-dihydro-6-methyl-2-oxo-2H -1,3,4-thiadiazin-5-yl)-2-oxo-1H-indol-3-ylidene]amino]oxy]lacetate]
max (percent change of maximal ATPase activity) (30 μM): 8 ± 6%
pCa (shift of the pCa giving 50% of the maximal control ATPase activity; Ca++ sensitivity) (30 μM): +0.05 ± 0.02

CC1SC(=O)NN=C1c1ccc2c(c1)C(=NNC(=O)c1cccnc1)C(=O)N2 (stereo not shown) [Example 38, 3-Pyridinecarboxylic acid, 2-[2,3-dihydro-5-(3,6-dihydro-6-methyl-2-oxo-2H-1,3,4-thiadiazin-5-yl)-2-oxo-1H-indol-3-ylidenelhydrazide hydrochloride]
max (percent change of maximal ATPase activity) (10 μM): 34 ± 7%
pCa (shift of the pCa giving 50% of the maximal control ATPase activity; Ca++ sensitivity) (10 μM): 1.10 ± 0.02
max (percent change of maximal ATPase activity) (30 μM): 34 ± 5%
pCa (shift of the pCa giving 50% of the maximal control ATPase activity; Ca++ sensitivity) (30 μM): +1.05 ± 0.06

CC1SC(=O)NN=C1c1ccc2c(c1)C(=NNc1c(F)c(F)c(F)c(F)c1F)C(=O)N2 (stereo not shown) [Example 32, 5-(3,6-Dihydro-6-methyl-2-oxo-2H-1,3,4-thiadiazin-5-yl) -1H-indole-2,3-dione 3-(pentafluorophenylhydrazone)]
max (percent change of maximal ATPase activity) (30 μM): -1 ± 7%
pCa (shift of the pCa giving 50% of the maximal control ATPase activity; Ca++ sensitivity) (30 μM): +0.10 ± 0.04

CC1SC(=O)NN=C1c1ccc2c(c1)C(=NNc1cccnc1)C(=O)N2 (stereo not shown) [Example 36, 5-(3,6-Dihydro-6-methyl-2-oxo-2H-1,3,4-thiadiazin-5-yl) -1H-indole-2,3-dione 3-(3-pyridylhydrazone)]
max (percent change of maximal ATPase activity) (30 μM): 24 ± 5%
pCa (shift of the pCa giving 50% of the maximal control ATPase activity; Ca++ sensitivity) (30 μM): +0.92 ± 0.06

CC1SC(=O)NN=C1c1ccc2c(c1)C(=Cc1ccccn1)C(=O)N2 (stereo not shown) [Example 20, 1,3-Dihydro-5-(3,6-dihydro-6-methyl-2-oxo-2H-1,3,4-thiadiazin-5-yl)-3-(2-pyridylmethylene)-2H-indol-2-one]
max (percent change of maximal ATPase activity) (30 μM): -13 ± 5%
pCa (shift of the pCa giving 50% of the maximal control ATPase activity; Ca++ sensitivity) (30 μM): +0.19 ± 0.08

CC1SC(=O)NN=C1c1ccc2c(c1)C(=NNc1ccc(C(F)(F)F)cc1)C(=O)N2 (stereo not shown) [Example 42, 5-(3,6-Dihydro-6-methyl-2-oxo-2H-1,3,4-thiadiazin-5-yl) -1H-indole-2,3-dione 3-[4-trifluoromethylphenylhydrazone]]
max (percent change of maximal ATPase activity) (30 μM): 11 ± 4%
pCa (shift of the pCa giving 50% of the maximal control ATPase activity; Ca++ sensitivity) (30 μM): +0.30 ± 0.02

CC1SC(=O)NN=C1c1ccc2c(c1)C(=NNC1CCCCC1)C(=O)N2 (stereo not shown) [Example 25, 5-(3,6-Dihydro-6-methyl-2-oxo-2H-1,3,4-thiadiazin-5-yl) -1H-indole-2,3-dione 3-(cyclohexylhydrazone)]
max (percent change of maximal ATPase activity) (30 μM): 22 ± 3%
pCa (shift of the pCa giving 50% of the maximal control ATPase activity; Ca++ sensitivity) (30 μM): +0.49 ± 0.06

CC1SC(=O)NN=C1c1ccc2c(c1)C(=NNC(=O)c1ccccn1)C(=O)N2 (stereo not shown) [Example 37]
max (percent change of maximal ATPase activity) (30 μM): -9 ± 1%
pCa (shift of the pCa giving 50% of the maximal control ATPase activity; Ca++ sensitivity) (30 μM): +0.14 ± 0.03

CC1SC(=O)NN=C1c1ccc2c(c1)C(=NNc1ccc(C(=O)O)cc1)C(=O)N2 (stereo not shown) [Example 34]
max (percent change of maximal ATPase activity) (30 μM): 5 ± 2%
pCa (shift of the pCa giving 50% of the maximal control ATPase activity; Ca++ sensitivity) (30 μM): +0.40 ± 0.02

CC1SC(=O)NN=C1c1ccc2c(c1)C(=NN(C)c1ccccc1)C(=O)N2 (stereo not shown) [Example 26, 5-(3,6-Dihydro-6-methyl-2-oxo-2H-1,3,4-thiadiazin-5-yl) -1H-indole-2,3-dione 3-(methylphenylhydrazone)]
max (percent change of maximal ATPase activity) (30 μM): 17 ± 2%
pCa (shift of the pCa giving 50% of the maximal control ATPase activity; Ca++ sensitivity) (30 μM): +0.65 ± 0.05

CC1SC(=O)NN=C1c1ccc2c(c1)C(=NNC(=O)c1ccncc1)C(=O)N2 (stereo not shown) [Example 39]
max (percent change of maximal ATPase activity) (30 μM): 3 ± 2%
pCa (shift of the pCa giving 50% of the maximal control ATPase activity; Ca++ sensitivity) (30 μM): +0.04 ± 0.02

CC1SC(=O)NN=C1c1ccc2c(c1)C(=Cc1ccccc1[N+](=O)[O-])C(=O)N2 (stereo not shown) [Example 16, 1,3-Dihydro-5-(3,6-dihydro-6-methyl-2-oxo-2H-1,3,4-thiadiazin-5-yl)-3-(2-nitrophenylmethylene)-2H-indol-2-one]
max (percent change of maximal ATPase activity) (30 μM): 1 ± 4%
pCa (shift of the pCa giving 50% of the maximal control ATPase activity; Ca++ sensitivity) (30 μM): +0.17 ± 0.03

CC1SC(=O)NN=C1c1ccc2c(c1)C(=NNc1ccc(C(C)(C)C)cc1)C(=O)N2 (stereo not shown) [Example 24, 5-(3,6-Dihydro-6-methyl-2-oxo-2H-1,3,4-thiadiazin-5-yl) -1H-indole-2,3-dione 3-[4-(1,1-dimethylethyl)phenylhydrazone]]
max (percent change of maximal ATPase activity) (30 μM): -2 ± 5%
pCa (shift of the pCa giving 50% of the maximal control ATPase activity; Ca++ sensitivity) (30 μM): +0.49 ± 0.06
